Biological target: hOGG1 (Homo sapiens, UniProt O15527)
Assay: Biochemical fluorescence assay to measure enzymatic activity of hOGG1 (OGG1/APEX IC50)
Parameters: Protein His-hOGG1 (12-323) was prepared; His (N); host or cells: E. coli
Conditions: 1 nM OGG1+2 nM APEX+6 nM dsDNA (8-oxo-dG substrate); pH 7.5; RT 40 min; read-out: OGG1/APEX IC50
Procedure, shortened: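 His-hOGG1 (12-323, E. coli) at 1 nM with 2 nM hAPE1/APEX1, preincubated 20 min RT with compound. Then 6 nM 8-oxo-dG dsDNA substrate added, 40 min at RT in Tris pH 7.5, 100 mM KCl. TAMRA fluorescence (Ex520/Em600) converted to % inhibition vs controls; IC50 from 3-parameter fit of 10-point curve.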

Chain of hOGG1 (O15527 12-323): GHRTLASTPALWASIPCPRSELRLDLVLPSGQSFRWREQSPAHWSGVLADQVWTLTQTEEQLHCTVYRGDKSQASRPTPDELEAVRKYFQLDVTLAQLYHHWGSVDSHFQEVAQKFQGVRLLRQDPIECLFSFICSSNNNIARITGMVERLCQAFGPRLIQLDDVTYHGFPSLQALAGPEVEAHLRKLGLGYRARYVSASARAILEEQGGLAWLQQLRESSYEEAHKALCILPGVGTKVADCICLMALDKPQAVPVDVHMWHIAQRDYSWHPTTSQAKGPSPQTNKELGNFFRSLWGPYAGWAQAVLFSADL

Which IC50 does the source give for `COc1cc(NC(=O)[C@]2(C)CC[C@H](N3Cc4c(C)cccc4C3=O)CC2)ccc1C` [Example 277, (1s,4s)-N-(3-methoxy-4-methylphenyl)-1-methyl-4-(4-methyl-1-oxoisoindolin-2-yl)cyclohexane-1-carboxamide] here?
The IC50 was 100 to 1000 nM.

`COc1cc(NC(=O)[C@H]2CC[C@@H](N3Cc4c(C)cc(-c5nnco5)cc4NC3=O)CC2)ccc1C` [Example 92, (1s,4s)-N-(3-methoxy-4-methylphenyl)-4-(5-methyl-7-(1,3,4-oxadiazol-2-yl)-2-oxo-1,2-dihydroquinazolin-3(4H)-yl)cyclohexanecarboxamide] was tested. Which IC50 did it give?
Its IC50 is less than 100 nM.

Which IC50 does the source give for `COc1ccc(NC(=O)[C@H]2CC[C@@H](N3Cc4c(C)ccnc4NC3=O)CC2)cc1Cl` [Example 14, (1s,4s)-N-(3-Chloro-4-methoxyphenyl)-4-(5-methyl-2-oxo-1,2-dihydropyrido[2,3-d]pyrimidin-3(4H)-yl)cyclohexanecarboxamide] here?
The IC50 was 100 to 1000 nM.

`COc1cc(NC(=O)[C@H]2CC[C@@H](N3Cc4c(C)ccc(C#N)c4NC3=O)CC2)ccc1C` [Example 59, (1s,4s)-4-(8-cyano-5-methyl-2-oxo-1,2-dihydroquinazolin-3(4H)-yl)-N-(3-methoxy-4-methylphenyl)cyclohexanecarboxamide] was tested. Which IC50 did it give?
Its IC50 is less than 100 nM.

`COc1ccc(NC(=O)[C@H]2CC[C@@H](N3Cc4c(C)ccc(OC)c4NC3=O)CC2)cc1C` [Example 4, (1s,4s)-N-(3-Methyl-4-methoxyphenyl)-4-(8-methoxy-5-methyl-2-oxo-1,2-dihydroquinazolin-3(4H)-yl)cyclohexanecarboxamide] was tested. Which IC50 did it give?
The IC50 was 100 to 1000 nM.

For `COc1cc(NC(=O)[C@H]2CC[C@@H](N3Cc4c(C)cc(N(C)C)cc4C3=O)CC2)ccc1C` [Example 135, (1s,4s)-4-(6-(Dimethylamino)-4-methyl-1-oxoisoindolin-2-yl)-N-(3-methoxy-4-methylphenyl)cyclohexane-1-carboxamide], which IC50 is on record?
The IC50 was less than 100 nM.

Which IC50 does the source give for `COc1ccc(NC(=O)[C@H]2CC[C@@H](N3Cc4c(C)ccc(OC)c4NC3=O)CC2)cc1Cl` [Example 3, (1s,4s)-N-(3-Chloro-4-methoxyphenyl)-4-(8-methoxy-5-methyl-2-oxo-1,2-dihydroquinazolin-3(4H)-yl)cyclohexanecarboxamide] here?
Its IC50 is 100 to 1000 nM.

With `COc1cc(NC(=O)[C@H]2CC[C@@H](N3Cc4c(C)ccc(OC5CNC5)c4NC3=O)CC2)ccc1C` [Example 45] as the molecule, how does the IC50 read?
The IC50 was less than 100 nM.
